Measured values published in patent US12630530B2, “FGFR inhibitor compound and use thereof” (HENAN MEDINNO PHARMACEUTICAL TECHNOLOGY CO., LTD., priority 2020, dated 2026).

Assays:
Format in all cases: biochemical
FGFR1 = target: T1, FGFR1 (Homo sapiens, UniProt P11362); assay: Assay II: inhibitory activity against wild-type FGFR (HTRF KinEASE-TK); conditions: Table 2, ATP working concentration 50 μM, substrate TK 1 μM
T1 construct: purchased Carna 08-133
Description: (§1) Assay II: Determination of inhibitory activity against wild-type FGFR
(§2) 1×Kinase reaction buffer was formulated with 1×volume of 5× kinase reaction buffer and 4×volume of water; 5 mM MgCl2; and 1 mM DTT.
(§3) 3. Formulating 2×FGFR1/FGFR2/FGFR3 with 1× of enzyme reaction buffer.
(§4) 4. Adding 2 μl FGFR1/FGFR2/FGFR3 kinase (formulated in step 3) to each well of the reaction plate.
(§5) 5. Adding 1 μl of the compound diluted in buffer to each well, sealing the plate with a sealing membrane and centrifuging the plate at 1000 g for 30 seconds and leaving it at room temperature for 10 minutes.
(§6) 6. Formulating 2.5×TK-substrate-biotin and ATP mixture with 1× enzyme reaction buffer and adding 2 μl of K-substrate-biotin/ATP mixture to the reaction plate.
(§7) 7. Sealing the plate with a sealing membrane and centrifuging the plate at 1000 g for 30 seconds and allowing it to react at room temperature for 50 minutes.
(§8) 3.3 Calculation of IC50 and plotting of inhibition curves for the compounds.
(§9) The IC50 (half inhibition concentration) of a compound was obtained using the following non-linear fitting equation, wherein data analysis was performed using Graphpad 6.0 software.
(§10) Data were exported from Envision and analyzed manually. The ratios were converted to inhibition rates and IC50 was calculated by Prism GraphPad 6.0 from the inhibition rates. IC50 was calculated again by the ratios to verify accuracy of the results.

FGFR2 = target: T2, FGFR2 (Homo sapiens, UniProt P21802); assay: as above; conditions: Table 2, ATP working concentration 50 μM, substrate TK 1 μM
T2 construct: purchased Carna 08-134
Description: as §1, §2, §3, §4, §5, §6, §7, §8, §9, §10

FGFR3 = target: T3, FGFR3 (Homo sapiens, UniProt P22607); assay: as above; conditions: Table 2, ATP working concentration 50 μM, substrate TK 1 μM
T3 construct: purchased Carna 08-135
Description: as §1, §2, §3, §4, §5, §6, §7, §8, §9, §10

FGFR2 V564F = target: T4, FGFR2 V564F (Homo sapiens, UniProt P21802, V564F); assay: Assay I: inhibitory activity against FGFR mutants (HTRF KinEASE-TK); conditions: Table 1; ATP working concentration 10 μM, substrate TK 1 μM
T4 construct: purchased Signalchem F05-12FG
Description: (§11) Assay I: Determination of Inhibitory Activity Against FGFR Mutants
as §2
(§12) 2.3 Screening of Compounds: • 1. […] Adding 1 μl of the compound diluted in buffer to each well, sealing the plate with a sealing membrane and centrifuging the plate at 1000 g for 30 seconds and leaving it at room temperature for 10 minutes. • 6. Formulating 2.5×TK-substrate-biotin and ATP mixture with 1× enzyme reaction buffer and adding 2 μl of K-substrate-biotin/ATP mixture to the reaction plate. • 7. Sealing the plate with a sealing membrane and centrifuging the plate at 1000 g for 30 seconds and allowing it to react at room temperature for 50 minutes. • 8. […] 3. Data Analysis
as §8, §9, §10

FGFR1 V561M = target: T5, FGFR1 V561M (Homo sapiens, UniProt P11362, V561M); assay: as above; conditions: Table 1; ATP working concentration 5 μM, substrate TK 1 μM
T5 construct: purchased Signalchem F04-13G
Description: as §11, §2, §12, §8, §9, §10

VEGFR2 = target: T6, VEGFR2 (Homo sapiens, UniProt P35968); assay: Assay I: kinase inhibition (HTRF KinEASE-TK), VEGFR2; conditions: Table 1; ATP working concentration 5 μM, substrate TK 1 μM
T6 construct: purchased Carna 08-191

FGFR3 V555M = target: T7, FGFR3 V555M (Homo sapiens, UniProt P22607, V555M); assay: Assay I: inhibitory activity against FGFR mutants (HTRF KinEASE-TK); conditions: Table 1; ATP working concentration 20 μM, substrate TK 1 μM
T7 construct: purchased Signalchem F06-12GG
Description: as §11, §2
2.3 Screening of Compounds: • 1. Diluting a compound 4-fold in a dilution plate with DMSO, with a starting compound concentration of 2 mM (4 mM for Nentedanib). • 2. Diluting the compound 40-fold into 1× kinase reaction buffer and shaking it on a shaker for 20 minutes. • 3. […] Adding 1 μl of the compound diluted in buffer to each well, sealing the plate with a sealing membrane and centrifuging the plate at 1000 g for 30 seconds and leaving it at room temperature for 10 minutes. • 6. Formulating 2.5×TK-substrate-biotin and ATP mixture with 1× enzyme reaction buffer and adding 2 μl of K-substrate-biotin/ATP mixture to the reaction plate. • 7. Sealing the plate with a sealing membrane and centrifuging the plate at 1000 g for 30 seconds and allowing it to react at room temperature for 50 minutes. • 8. Formulating 4×Sa-XL 665 (250 nM) with HTRF assay buffer. • 9. Adding 5 μl Sa-XL 665 and 5 μl TK-Antibody-Cryptate to each well, centrifuging it at 1000 g for 30 seconds, and allowing it to react for 1 hour at room temperature. • 10. Reading fluorescence signals at 615 nm (Cryptate) and 665 nm (XL665) with Biotek. 3. Data Analysis
3.1 Calculation of the ratio for each well: the ratio was calculated as 665/615 nm.
as §8, §9, §10

FGFR3 K650E = FGFR3 K650E (Homo sapiens, UniProt P22607, K650E); assay: as above; conditions: Table 1; ATP working concentration 50 μM, substrate TK 1 μM
Description: as §11, §2, §12, §8, §9, §10

Chain of FGFR3 K650E (P22607 23-806 K650E): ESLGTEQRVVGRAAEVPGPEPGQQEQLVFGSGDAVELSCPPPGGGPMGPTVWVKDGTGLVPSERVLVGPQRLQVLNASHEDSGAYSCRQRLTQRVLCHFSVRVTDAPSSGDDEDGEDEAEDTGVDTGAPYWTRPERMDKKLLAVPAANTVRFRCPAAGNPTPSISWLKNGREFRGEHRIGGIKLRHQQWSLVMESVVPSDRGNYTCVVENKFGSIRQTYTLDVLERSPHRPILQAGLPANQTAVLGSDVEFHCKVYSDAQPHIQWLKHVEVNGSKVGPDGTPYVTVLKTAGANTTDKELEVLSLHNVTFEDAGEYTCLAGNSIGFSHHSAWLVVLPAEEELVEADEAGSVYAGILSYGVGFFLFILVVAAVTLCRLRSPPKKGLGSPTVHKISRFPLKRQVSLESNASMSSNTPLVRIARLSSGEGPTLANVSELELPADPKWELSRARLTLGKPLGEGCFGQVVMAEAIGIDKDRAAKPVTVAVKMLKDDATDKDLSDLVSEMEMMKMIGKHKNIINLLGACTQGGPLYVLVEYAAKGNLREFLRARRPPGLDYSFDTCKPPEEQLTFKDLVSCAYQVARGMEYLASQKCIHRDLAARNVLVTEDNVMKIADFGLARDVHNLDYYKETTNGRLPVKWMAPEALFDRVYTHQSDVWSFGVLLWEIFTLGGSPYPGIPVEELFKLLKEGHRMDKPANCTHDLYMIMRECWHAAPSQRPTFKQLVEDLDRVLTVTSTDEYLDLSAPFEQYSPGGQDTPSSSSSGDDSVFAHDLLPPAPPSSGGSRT
T5 sequence (P11362 22-822 V561M): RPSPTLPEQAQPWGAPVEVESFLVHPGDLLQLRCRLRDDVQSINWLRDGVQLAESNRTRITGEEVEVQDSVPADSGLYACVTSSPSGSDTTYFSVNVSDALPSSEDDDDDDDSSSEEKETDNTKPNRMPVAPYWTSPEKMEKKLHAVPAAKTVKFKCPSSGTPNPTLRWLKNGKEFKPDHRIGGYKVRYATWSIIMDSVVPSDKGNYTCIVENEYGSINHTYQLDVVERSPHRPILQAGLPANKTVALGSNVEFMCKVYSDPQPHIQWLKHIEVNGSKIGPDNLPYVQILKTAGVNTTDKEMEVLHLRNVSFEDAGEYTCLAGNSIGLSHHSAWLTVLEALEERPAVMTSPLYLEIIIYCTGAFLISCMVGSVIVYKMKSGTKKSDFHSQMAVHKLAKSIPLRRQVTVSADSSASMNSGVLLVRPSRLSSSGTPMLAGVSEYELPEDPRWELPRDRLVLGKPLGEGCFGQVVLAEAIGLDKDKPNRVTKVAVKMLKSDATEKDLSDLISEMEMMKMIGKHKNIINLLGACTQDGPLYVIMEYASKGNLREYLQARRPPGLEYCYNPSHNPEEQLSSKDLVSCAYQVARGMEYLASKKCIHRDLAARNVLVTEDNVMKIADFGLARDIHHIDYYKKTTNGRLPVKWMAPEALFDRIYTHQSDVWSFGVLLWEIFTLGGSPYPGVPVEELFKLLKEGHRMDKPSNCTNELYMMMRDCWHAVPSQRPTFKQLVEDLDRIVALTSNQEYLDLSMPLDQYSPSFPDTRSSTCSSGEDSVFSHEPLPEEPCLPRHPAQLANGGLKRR
T2 sequence (P21802 22-821): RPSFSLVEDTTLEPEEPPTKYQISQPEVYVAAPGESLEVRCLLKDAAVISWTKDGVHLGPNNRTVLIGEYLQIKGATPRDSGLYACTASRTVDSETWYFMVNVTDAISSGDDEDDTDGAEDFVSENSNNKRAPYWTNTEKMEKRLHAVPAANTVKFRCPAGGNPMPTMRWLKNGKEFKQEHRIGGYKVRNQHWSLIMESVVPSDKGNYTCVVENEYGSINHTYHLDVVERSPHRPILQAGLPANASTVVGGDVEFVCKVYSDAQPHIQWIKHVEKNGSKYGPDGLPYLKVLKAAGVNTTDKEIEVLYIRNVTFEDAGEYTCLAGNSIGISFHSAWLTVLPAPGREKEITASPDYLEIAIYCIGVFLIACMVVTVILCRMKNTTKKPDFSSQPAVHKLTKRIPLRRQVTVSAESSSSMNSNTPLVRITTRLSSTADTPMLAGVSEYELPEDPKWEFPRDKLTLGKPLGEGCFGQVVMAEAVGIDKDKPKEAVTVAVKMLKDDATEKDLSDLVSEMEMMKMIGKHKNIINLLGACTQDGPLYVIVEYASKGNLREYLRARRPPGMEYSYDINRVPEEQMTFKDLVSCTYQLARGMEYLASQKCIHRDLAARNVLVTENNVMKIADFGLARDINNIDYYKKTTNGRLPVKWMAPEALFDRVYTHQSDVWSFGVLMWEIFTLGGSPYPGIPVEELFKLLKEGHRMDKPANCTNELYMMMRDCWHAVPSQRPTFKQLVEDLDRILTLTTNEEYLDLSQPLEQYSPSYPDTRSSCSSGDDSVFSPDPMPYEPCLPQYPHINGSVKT
T1 sequence (P11362 22-822): as the sequence (P11362 22-822 V561M) above, with M540V counted along it
T4 sequence (P21802 22-821 V564F): as the sequence (P21802 22-821) above, with V543F counted along it
T6 sequence (P35968 20-1356): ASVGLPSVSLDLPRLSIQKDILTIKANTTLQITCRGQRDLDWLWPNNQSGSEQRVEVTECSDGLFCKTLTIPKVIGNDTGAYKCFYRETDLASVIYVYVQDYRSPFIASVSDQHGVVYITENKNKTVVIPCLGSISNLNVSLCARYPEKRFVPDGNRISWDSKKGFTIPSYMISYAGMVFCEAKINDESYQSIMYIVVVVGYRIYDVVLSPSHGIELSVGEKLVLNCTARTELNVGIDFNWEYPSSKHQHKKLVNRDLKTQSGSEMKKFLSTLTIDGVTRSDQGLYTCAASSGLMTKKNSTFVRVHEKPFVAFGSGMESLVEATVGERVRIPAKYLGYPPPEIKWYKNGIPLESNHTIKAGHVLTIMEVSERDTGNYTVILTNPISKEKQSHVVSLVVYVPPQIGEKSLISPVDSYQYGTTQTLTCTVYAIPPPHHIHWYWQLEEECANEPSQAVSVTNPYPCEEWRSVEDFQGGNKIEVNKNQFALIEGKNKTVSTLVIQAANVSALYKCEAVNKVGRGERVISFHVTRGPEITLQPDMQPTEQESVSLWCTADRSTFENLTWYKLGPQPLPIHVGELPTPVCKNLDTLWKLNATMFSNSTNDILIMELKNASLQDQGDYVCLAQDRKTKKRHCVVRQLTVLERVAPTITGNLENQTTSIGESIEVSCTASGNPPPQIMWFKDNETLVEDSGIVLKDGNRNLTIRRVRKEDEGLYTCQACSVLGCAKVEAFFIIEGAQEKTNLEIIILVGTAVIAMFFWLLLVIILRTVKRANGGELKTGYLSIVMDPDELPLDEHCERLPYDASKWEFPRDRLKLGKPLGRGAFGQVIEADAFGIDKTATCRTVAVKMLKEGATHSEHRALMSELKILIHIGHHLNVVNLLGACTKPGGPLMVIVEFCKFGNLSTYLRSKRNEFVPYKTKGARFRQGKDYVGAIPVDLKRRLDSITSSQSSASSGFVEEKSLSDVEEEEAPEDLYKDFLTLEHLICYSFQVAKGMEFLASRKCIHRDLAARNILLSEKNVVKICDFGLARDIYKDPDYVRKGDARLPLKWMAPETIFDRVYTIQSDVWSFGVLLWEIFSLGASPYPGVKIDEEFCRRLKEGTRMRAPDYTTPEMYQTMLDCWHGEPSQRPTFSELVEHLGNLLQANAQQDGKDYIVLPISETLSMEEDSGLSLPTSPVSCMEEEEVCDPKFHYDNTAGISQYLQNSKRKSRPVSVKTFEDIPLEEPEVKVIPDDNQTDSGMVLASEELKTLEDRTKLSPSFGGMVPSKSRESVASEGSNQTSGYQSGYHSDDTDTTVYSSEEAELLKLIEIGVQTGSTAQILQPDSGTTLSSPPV
T7 sequence (P22607 23-806 V555M): as the sequence (P22607 23-806 K650E) above, with V533M, E628K counted along it
T3 sequence (P22607 23-806): as the sequence (P22607 23-806 K650E) above, with E628K counted along it

IC50 (FGFR1)	IC50 (FGFR2)	IC50 (FGFR3)	IC50 (FGFR2 V564F)	IC50 (FGFR1 V561M)	IC50 (VEGFR2)	IC50 (FGFR3 V555M)	IC50 (FGFR3 K650E)	SMILES
11.1 nM	9.5 nM	19.2 nM	0.14 nM	0.47 nM	24.7 nM	0.27 nM		CC(Oc1ccc2[nH]nc(C(=O)Nc3cnn(C4CCN(C)CC4)c3)c2c1)c1c(Cl)cncc1Cl (stereo not shown) [Compound 14, 5-(1-(3,5-dichloropyridin-4-yl)ethoxy)-N-(1-(1-methylpiperidin-4-yl)-1H-pyrazol-4-yl)-1H-indazole-3-carboxamide]
45.1 nM	24.5 nM	42.9 nM	0.48 nM	1.9 nM	208 nM	0.74 nM		CC(Oc1ccc2[nH]nc(C(=O)Nc3cnn(C4CC(O)C4)c3)c2c1)c1c(Cl)cncc1Cl (stereo not shown) [Compound 12, 5-(1-(3,5-dichloropyridin-4-yl)ethoxy)-N-(1-(3-hydroxycyclobutyl)-1H-pyrazol-4-yl)-1H-indazole-3-carboxamide]
61 nM	48.7 nM	102 nM	0.94 nM	1 nM	152 nM	1.1 nM		CC(Oc1ccc2[nH]nc(C(=O)Nc3ccc(N4CCN(C)CC4)cc3)c2c1)c1c(Cl)cncc1Cl (stereo not shown) [Compound 9, 5-(1-(3,5-dichloropyridin-4-yl)ethoxy)-N-(4-(4-methylpiperazin-1-yl)phenyl)-1H-indazole-3-carboxamide]
69.7 nM	58.6 nM	106 nM	4 nM	2.3 nM	224 nM	2.6 nM		CC(Oc1ccc2[nH]nc(C(=O)Nc3ccc(N4C[C@@H](C)N[C@@H](C)C4)nc3)c2c1)c1c(Cl)cncc1Cl (stereo partly drawn) [Compound 8, 5-(1-(3,5-dichloropyridin-4-yl)ethoxy)-N-(6-((3S, 5R)-3,5-dimethylpiperazin-1-yl)pyridin-3-yl)-1H-indazole-3-carboxamide]
			2 nM	7 nM	176 nM	2.2 nM	30 nM	CC(Oc1ccc2[nH]nc(C(=O)Nc3cnn(CCO)c3)c2c1)c1c(Cl)cncc1Cl (stereo not shown) [Compound 2, 5-(1-(3,5-dichloropyridin-4-yl)ethoxy)-N-(1-(2-hydroxyethyl)-1H-pyrazol-4-yl)-1H-indazole-3-carboxamide]
27.7 nM	21.3 nM	52.2 nM	0.66 nM	2.3 nM	84.1 nM	0.94 nM		C[C@@H]1CN(c2ccc(NC(=O)c3n[nH]c4ccc(O[C@H](C)c5c(Cl)cncc5Cl)cc34)cc2)C[C@H](C)N1 [Compound 6, 5-((R)-1-(3,5-dichloropyridin-4-yl)ethoxy)-N-(4-((3S,5R)-3,5-dimethylpiperazin-1-yl)phenyl)-1H-indazole-3-carboxamide]
			0.24 nM	0.35 nM	63.4 nM	0.27 nM		CC(Oc1ccc2[nH]nc(C(=O)Nc3cnn(CCN4CCOCC4)c3)c2c1)c1c(Cl)cncc1Cl (stereo not shown) [Compound 19, 5-(1-(3,5-dichloropyridin-4-yl)ethoxy)-N-(1-(2-morpholinoethyl)-1H-pyrazol-4-yl)-1H-indazole-3-carboxamide]
			8.9 nM	6.8 nM	> 10000 nM	5.9 nM		CC(Oc1ccc2[nH]nc(C(=O)Nc3ccc(N4CCC(O)CC4)cc3)c2c1)c1c(Cl)cncc1Cl (stereo not shown) [Compound 13, 5-(1-(3,5-dichloropyridin-4-yl)ethoxy)-N-(4-(4-hydroxypiperidin-1-yl)phenyl)-1H-indazole-3-carboxamide]
			2.3 nM	6.3 nM		8.6 nM	26.8 nM	CC(Oc1ccc2[nH]nc(C(=O)Nc3ccc(N4C[C@@H](C)N[C@@H](C)C4)cc3)c2c1)c1c(Cl)cncc1Cl (stereo partly drawn) [Compound 1, 5-(1-(3,5-dichloropyridin-4-yl)ethoxy)-N-(4-((3S,5R)-3,5-dimethylpiperazin-1-yl)phenyl)-1H-indazole-3-carboxamide]
			0.63 nM	1.6 nM	141 nM	1.1 nM		CCN1CCC(c2ccc(NC(=O)c3n[nH]c4ccc(OC(C)c5c(Cl)cncc5Cl)cc34)cc2)CC1 (stereo not shown) [Compound 18, 5-(1-(3,5-dichloropyridin-4-yl)ethoxy)-N-(4-(1-ethylpiperidin-4-yl)phenyl)-1H-indazole-3-carboxamide]
			1.1 nM	5.6 nM	230 nM	1.7 nM		CC(Oc1ccc2[nH]nc(C(=O)Nc3cnn(CCC#N)c3)c2c1)c1c(Cl)cncc1Cl (stereo not shown) [Compound 11, N-(1-(2-cyanoethyl)-1H-pyrazol-4-yl)-5-(1-(3,5-dichloropyridin-4-yl)ethoxy)-1H-indazole-3-carboxamide]
			2.4 nM	7.2 nM		4.6 nM	33.4 nM	CC(Oc1ccc2[nH]nc(C(=O)Nc3cnn(C(C)CC#N)c3)c2c1)c1c(Cl)cncc1Cl (stereo not shown) [Compound 5, N-(1-(1-cyanopropan-2-yl)-1H-pyrazol-4-yl)-5-(1-(3,5-dichloropyridin-4-yl)ethoxy)-1H-indazole-3-carboxamide]
64.5 nM	48 nM	98.8 nM	3.2 nM	1.7 nM	1390 nM	2 nM		CCN1CCN(c2ccc(NC(=O)c3n[nH]c4ccc(OC(C)c5c(Cl)cncc5Cl)cc34)cc2)CC1 (stereo not shown) [Compound 10, 5-(1-(3,5-dichloropyridin-4-yl)ethoxy)-N-(4-(4-ethylpiperazin-1-yl)phenyl)-1H-indazole-3-carboxamide]
27.5 nM	7.6 nM	42.6 nM	0.42 nM	5.2 nM	97.6 nM	0.73 nM		C[C@@H](Oc1ccc2[nH]nc(C(=O)Nc3cnn(CCO)c3)c2c1)c1c(Cl)cncc1Cl [Compound 7, (R)-5-(1-(3,5-dichloropyridin-4-yl)ethoxy)-N-(1-(2-hydroxyethyl)-1H-pyrazol-4-yl)-1H-indazole-3-carboxamide]
			0.82 nM	9.1 nM	327 nM	0.88 nM		CCn1cc(NC(=O)c2n[nH]c3ccc(OC(C)c4c(Cl)cncc4Cl)cc23)cn1 (stereo not shown) [Compound 20, 5-(1-(3,5-dichloropyridin-4-yl)ethoxy)-N-(1-ethyl-1H-pyrazol-4-yl)-1H-indazole-3-carboxamide]
